Test results published in ChEMBL document CHEMBL5260847, “Current scenario of indole derivatives with potential anti-drug-resistant cancer activity” (Eur J Med Chem, 2020).

Key:
LNCaP = test: Cytotoxicity activity against human LNCaP cells assessed as reduction in cell viability; assay type: functional, cell-based
K562/A02 = test: Antiproliferative activity against human K562/A02 cells assessed as reduction in cell viability measured after 2 days by MTT assay; assay type: functional, cell-based; conditions: K562/A02, 48 h
HepG2 = test: Anticancer activity against human HepG2 cells assessed as inhibition of cell growth; assay type: functional, cell-based
KB = test: Antiproliferative activity against human KB cells assessed as reduction in cell growth incubated for 2 days by MTT assay; assay type: functional, cell-based; conditions: 48 h
HeLa = test: Anticancer activity against human HeLa cells assessed as inhibition of cell growth; assay type: functional, cell-based
CCRF-CEM = test: Cytotoxicity against drug-sensitive human CCRF-CEM cells assessed as reduction in cell viability measured after 72 hrs by MTT assay; assay type: functional, cell-based
NCI-H1650 [1] = test: Cytotoxicity activity against drug-sensitive human NCI-H1650 cells assessed as reduction in cell viability measured after 72 hrs by MTT assay; assay type: functional, cell-based; conditions: NCI-H1650, 72 h
PC-9 = test: Antitumor activity in gefitinib-resistant human PC-9 cells xenografted Sprague-Dawley mouse at 40 mg/kg assessed as tumor growth inhibition administered for 5 days; assay type: functional; set-up: scale not given: the % may be the effect or the level left; conditions: time 5 day
NCI-H460 = test: Antitumor activity in human NCI-H460 cells xenografted […] mouse at 40 mg/kg assessed as tumor growth inhibition; assay type: functional; set-up: scale not given: the % may be the effect or the level left
NCI-H1650 [2] = test: Antitumor activity in human NCI-H1650 cells xenografted Sprague-Dawley mouse at 40 mg/kg assessed as tumor growth inhibition administered for 5 days; assay type: functional; set-up: scale not given: the % may be the effect or the level left; conditions: time 5 day
NCI-H1975 = test: Antitumor activity in human NCI-H1975 cells xenografted Sprague-Dawley mouse at 40 mg/kg assessed as tumor growth inhibition administered for 5 days; assay type: functional; set-up: scale not given: the % may be the effect or the level left; conditions: time 5 day
[3] = Antiproliferative activity against human KB-VIN cells assessed as reduction in cell viability measured after 72 hrs by SRB assay; assay type: functional, cell-based; conditions: KBVIN
A549 [4] = test: Antiproliferative activity against human A549 cells assessed as inhibition of cell growth measured after 72 hrs by SRB assay; assay type: functional, cell-based; conditions: A549, 72 h
A549 [5] = test: Cytotoxicity activity against human A549 cells assessed as reduction in cell viability by SRB assay; assay type: functional, cell-based
MCF7 = test: Antiproliferative activity against human MCF7 cells assessed as inhibition of cell proliferation incubated for 72 hrs by MTT assay; assay type: functional, cell-based; conditions: MCF7, 72 h
HT-29 [6] = test: Cytotoxicity activity against human HT-29 cells assessed as reduction in cell viability by SRB assay; assay type: functional, cell-based
HT-29 [7] = test: Cytotoxicity activity against human HT-29 cells assessed as reduction in cell growth measured after 72 hrs by MTT assay; assay type: functional, cell-based; conditions: HT-29, 72 h
K562 [8] = test: Cytotoxicity against human K562 cells assessed as reduction in cell viability incubated for 72 hrs by MTT assay; assay type: functional, cell-based; conditions: K562, 72 h
A549 [9] = test: Antiproliferative activity against multi-drug resistant human A549 cells assessed as reduction in cell viability; assay type: functional, cell-based
H69AR [10] = test: Antiproliferative activity against multi-drug resistant human NCI-H69AR assessed as reduction in cell viability; assay type: functional, cell-based
H69AR [11] = test: Antiproliferative activity against multidrug resistant human NCI-H69AR assessed as inhibition of cell proliferation by MTT assay; assay type: functional, cell-based
[12] = Selectivity index, ratio of IC50 for antiproliferative activity against human MCF-10A cells to IC50 for antiproliferative activity against […] cells by MTT assay; assay type: toxicity, cell-based; conditions: MCF-10A cells and IEC-6 cells, read-out: Selectivity Index
ZR-75-1 [13] = test: Antiproliferative activity against multi-drug resistant human ZR-75-1 cells assessed as reduction in cell viability; assay type: functional, cell-based
HT-29 [14] = test: Antiproliferative activity against human HT-29 cells assessed as reduction in cell viability celltiter-Glo assay; assay type: functional, cell-based
MCF-10A = test: Antiproliferative activity against human MCF-10A cells assessed as reduction in cell viability measured after 48 hrs by MTT assay; assay type: functional, cell-based
ZR-75-1 [15] = test: Antiproliferative activity against human ZR-75-1 cells assessed as reduction in cell viability celltiter-Glo assay; assay type: functional, cell-based
HT-29 [16] = test: Antiproliferative activity against drug-sensitive human HT-29 cells assessed as reduction in cell viability by MTT assay; assay type: functional, cell-based
LS180 [17] = test: Antitumor activity against human LS180 cells xenografted in ICR mouse assessed as tumor growth inhibition at 45 mg/kg; assay type: functional; set-up: scale not given: the % may be the effect or the level left
LS180 [18] = test: Antitumor activity against human LS180 cells xenografted in ICR mouse assessed as tumor growth inhibition at 4.5 mg/kg; assay type: functional; set-up: scale not given: the % may be the effect or the level left
PC-3 [19] = test: Antitumor activity in human PC-3 cells xenografted immunodeficient ICR mouse assessed as reduction in tumor growth at 25 mg/kg, ip administered for 2 weeks; assay type: functional; set-up: scale not given: the % may be the effect or the level left
PC-3 [20] = test: Antitumor activity in human PC-3 cells xenografted immunodeficient ICR mouse assessed as reduction in tumor growth at 0.5 mg/kg, ip administered for 2 weeks in presence of vinblastine; assay type: functional; set-up: scale not given: the % may be the effect or the level left
K562/Adr = test: Cytotoxicity activity against doxorubicin-resistant human K562/Adr cells assessed as reduction in cell viability measured after 72 hrs by CCK-8 assay; assay type: functional, cell-based
K562 [21] = test: Antiproliferative activity against human K562 cells assessed as reduction in cell growth measured after 24 hrs by CCK-8 assay; assay type: functional, cell-based; conditions: K562, 24 h
K562 [22] = test: Cytotoxicity activity against […] human K562 cells assessed as reduction in cell viability measured after 72 hrs by CCK-8 assay; assay type: functional, cell-based; conditions: K562, 72 h
HCT-15 = test: Antiproliferative activity against multidrug-resistant human HCT-15 cells assessed as reduction in cell viability; assay type: functional, cell-based
HCT-116 = test: Antiproliferative activity against multi-drug - resistant human HCT-116 cells assessed as reduction in cell viability; assay type: functional, cell-based

With `CC[C@]1(O)C[C@H]2CN(CCc3c([nH]c4ccccc34)[C@@](C(=O)OC)(c3cc4c(cc3OC)N(C=O)[C@H]3[C@@](O)(C(=O)OC)[C@H](OC(C)=O)[C@]5(CC)C=CCN6CC[C@]43[C@@H]65)C2)C1` [VINCRISTINE] the IC50 (LNCaP) was 2600 nM.
In the case of `COc1cc([C@@H]2c3cc4c(cc3[C@@H](O[C@@H]3O[C@@H]5CO[C@@H](C)O[C@H]5[C@H](O)[C@H]3O)[C@H]3COC(=O)[C@H]23)OCO4)cc(OC)c1O` [ETOPOSIDE], the IC50 (K562/A02) is reported as 10600 nM, the IC50 (HepG2) is reported as 6940 nM and the IC50 (KB) is reported as 1020 nM. The IC50 (HeLa) was over 50000 nM.
`CCc1c(CO)c(CO)c2n1Cc1c(c3ccccc3n1C)C2` gave an IC50 (CCRF-CEM) of 410 nM, an IC50 (NCI-H1650 [1]) of 3500 nM and an Activity (PC-9) of 73%. For the same compound, the Activity (NCI-H460) was 65%, the Activity (NCI-H1650 [2]) was 30% and the Activity (NCI-H1975) was 26%.
Work on `CC[C@@H]1C[C@@H]2CN3CCc4c([nH]c5c([C@H]6CC7[C@]8(O[C@@H]8C)[C@@H]8OC[C@@]7(C(=O)OC)[C@H](Cc7c6[nH]c6ccccc76)N8C)c(OC)ccc45)[C@@](C(=O)OC)(C2)[C@@H]13` yielded an IC50 [3] of 2600 nM, an IC50 (A549 [4]) of 3100 nM and an IC50 (A549 [5]) of 4800 nM. It also gave an IC50 (MCF7) of 12900 nM.
`C/C=C1/CN2[C@H]3C[C@@H]1C(CO)[C@@H]2Cc1c3n(C)c2cc(C[C@H]3[C@@H]4C[C@H]5c6c(c7ccccc7n6C)C[C@@H]([C@@H]4CO[C@]3(C)OC)N5C)c(OC)cc12` (some centres not stated) showed an IC50 (HT-29 [6]) of 20 nM.
In the case of `COc1cccc2c1C(=O)c1c(O)c3c(c(O)c1C2=O)C[C@@](O)(C(=O)CO)C[C@@H]3O[C@H]1C[C@H](N)[C@H](O)[C@H](C)O1` [DOXORUBICIN], the IC50 (HT-29 [7]) is reported as 1480 nM and the IC50 (K562 [8]) is reported as over 168000 nM.
Compound `CO/N=C1\C(=O)N(Cc2cn(CCOCCN3C(=O)/C(=N/OC)c4ccccc43)nn2)c2ccccc21` has an IC50 (HepG2) of 180 nM.
Compound `CCOC(=O)c1c(-c2ccccc2)oc2ccc(OCCCCCCN3C(=O)C(=O)c4ccccc43)cc12` has an IC50 (A549 [9]) of 47600 nM.
`O=C1Nc2ccc(Cl)cc2/C1=N/N=C/c1ccn[nH]1` showed an IC50 (H69AR [10]) of 16600 nM, an IC50 (H69AR [11]) of 16000 nM and a selectivity ratio [12] of 1.6. It also gave an IC50 (ZR-75-1 [13]) of 1370 nM, an IC50 (HT-29 [14]) of 2750 nM and an IC50 (MCF-10A) of 3420 nM. The IC50 (ZR-75-1 [15]) was 1370 nM and the IC50 (HT-29 [16]) was 5870 nM.
`CCO[C@]1(C)C[C@@H]2CN(CCc3c([nH]c4ccccc34)[C@@](C(=O)OC)(c3cc4c(cc3OC)N(C)C3[C@]45CCN4CC=C[C@@](CC)([C@@H](OC(C)=O)[C@]3(O)C(=O)OC)[C@H]45)C2)C1` (some centres not stated) showed an Activity (LS180 [17]) of 67.8% and an Activity (LS180 [18]) of 40.7%.
In the case of `CC1(C)C([C@@H](Cc2c[nH]c3ccccc23)C(=O)OCc2ccccc2)C(=O)[C@@H]2Cc3c([nH]c4ccccc34)CN21` (some centres not stated), the Activity (PC-3 [19]) is reported as 40% and the Activity (PC-3 [20]) is reported as 50%.
`COc1cc([C@@H]2c3cc4c(cc3[C@H](OC(=O)c3ccc5cc[nH]c5c3)[C@H]3COC(=O)[C@H]23)OCO4)cc(OC)c1OC` showed an IC50 (K562/Adr) of 245 nM, an IC50 (K562 [21]) of 43 nM and an IC50 (K562 [22]) of 19 nM.
Work on `[O-][n+]1onc2c3cc[nH]c3ccc21` yielded an IC50 (HCT-15) of 690 nM and an IC50 (HCT-116) of 2060 nM.
